Results as given in patent US4291033A, “Oxoimidazoquinoxalines” (Roussel Uclaf, priority 1979, dated 1981).

Tested on: cutaneous anaphylaxis
Test: Passive cutaneous anaphylaxis (PCA) in rats
Type: in vivo, male rats
Settings: Rattus norvegicus
Source text: Passive cutaneous anaphylaxis (PCA) in rats
Cutaneous anaphylaxis was induced in groups of 7 male rats weighing 180 to 220 grams by intradermal (ID) sensitization with antiserum followed, three days later, by systemic challenge with antigen. Evans blue dye injected with the antigen is used as a marker to assess the severity of the local response. Anti-allergic drugs inhibit this reaction and this method has been described by OVARY (1962) in "Passive Cutaneous Anaphylaxis in Allergology" 258-367 Ed. Brown; Pergamon Press.
Preparation of Antigen (or Sensitization)
(Alum-precipitated ovalbumen)
1. Wash 120 grams of Al(OH)3 gel in 140 ml of saline (use of a macerator facilitates mixing).
2. Centrifuge at 3,000 r.p.m. for about 10 minutes.
3. Resuspend the precipitate with 300 ml of albumen egg powder (1.3 mg/ml) in saline and allow to stand for 30 minutes.
4. Centrifuge at 3,000 r.p.m. for 10 minutes.
5. Weigh the wet precipitate and to each gram weight add 1 ml of saline. Store in frigerator.
(Quantity sufficient for 60 rats for a 3 day sensitization program).
Preparation of Antiserum (i.e. anti-ovalbumen)
1. 1 ml of the alum-precipitated ovalbumen was injected subcutaneously into 180-200 gram rats on days 0,2 and 4.
2. The rats were bled on day 14 either by cardiac puncture or via the dorsal abdominal aorta.
3. Equal quantities of serum from each animal were pooled and thoroughly mixed.
4. 2 ml of aliquots were stored at -20° C. in plastic tubes.
The antiserum for sensitization was diluted so that an ID injection of 0.1 ml into control animals gave an average score of a single spot of between 2.0-3.5 using a 5 point scoring system (0,1,2,3,4)
(A) SENSITIZATION: Rats are anaesthetized with Nembutal (40-60 mg/kg i.p.) and then sensitized by four ID injections (0.1 ml each) on their shaved backs. The animals were then left for a period of three days to develop sensitization.
(B) […]: The sensitized rats were anaesthetised and challenged orally or intravenously via the superficial penile vein with 1 ml of an antigen/Evans blue mixture (1 mg albumen egg powder in 0.5 ml saline plus 0.5 ml of 1% Evans blue). The injections were speeded up by using an automatic 1 ml self filling glass syringe. The "challenged" rats were killed after 30 minutes, (usually pithed) and their skin on the dorsal surface was removed. The degree and area of blueing, proportional to the anaphylactic reaction, was assessed on a five point scoring system.
1. Total scores for sites 1,2,3 and 4=X
2. Mean value of X for each group=X
3. X t=X for test group; X c=X for control group
4. % inhibition=(X c-X t)/X c×100/1

Row | Structure (SMILES) | ED50 (iv) | ED50 (po)
1 | O=C(O)c1cn2c(n1)c(=O)[nH]c1ccccc12 [Example 2, 4,5-dihydro-4-oxoimidazo-[1,2-a]-quinoxaline-2-carboxylic acid] | 0.16 mg/kg | 2 mg/kg
2 | Cn1c(=O)c2nc(C(=O)O)cn2c2ccccc21 [Example 4, 4,5-dihydro-5-methyl-4-oxoimidazo-[1,2-a]-quinoxaline-2-carboxylic acid] | 0.031 mg/kg | 1.28 mg/kg
3 | CCOC(=O)c1cn2c(n1)c(=O)n(CC)c1ccccc12 [Example 5, Ethyl 4,5-dihydro-5-ethyl-4-oxoimidazo-[1,2-a]-quinoxaline-2-carboxylate] |  | 0.16 mg/kg
4 | CCn1c(=O)c2nc(C(=O)O)cn2c2ccccc21 [Example 6, 4,5-dihydro-5-ethyl-4-oxoimidazo-[1,2-a]-quinoxaline-2-carboxylic acid] | 0.01 mg/kg | 0.45 mg/kg
5 | CCCn1c(=O)c2nc(C(=O)O)cn2c2ccccc21 [Example 8, 4,5-dihydro-5-propyl-4-oxoimidazo-[1,2-a]-quinoxaline-2-carboxylic acid] | 0.01 mg/kg | 0.24 mg/kg
6 | CCCCn1c(=O)c2nc(C(=O)O)cn2c2ccccc21 [Example 10, 4,5-dihydro-5-butyl-4-oxoimidazo-[1,2-a]-quinoxaline-2-carboxylic acid] | 0.023 mg/kg | 0.59 mg/kg
